Source: US20260376293A1, “METHODS FOR STUDYING GPR158 PHARMACOLOGY AND IDENTIFICATION OF ITS LIGANDS” (UNIVERSITY OF FLORIDA RESEARCH FOUNDATION, INCORPORATED, priority 2022, published 2026)

Target: T1, GPR158 (Homo sapiens, UniProt Q5T848)
T1 sequence (Q5T848 24-1215): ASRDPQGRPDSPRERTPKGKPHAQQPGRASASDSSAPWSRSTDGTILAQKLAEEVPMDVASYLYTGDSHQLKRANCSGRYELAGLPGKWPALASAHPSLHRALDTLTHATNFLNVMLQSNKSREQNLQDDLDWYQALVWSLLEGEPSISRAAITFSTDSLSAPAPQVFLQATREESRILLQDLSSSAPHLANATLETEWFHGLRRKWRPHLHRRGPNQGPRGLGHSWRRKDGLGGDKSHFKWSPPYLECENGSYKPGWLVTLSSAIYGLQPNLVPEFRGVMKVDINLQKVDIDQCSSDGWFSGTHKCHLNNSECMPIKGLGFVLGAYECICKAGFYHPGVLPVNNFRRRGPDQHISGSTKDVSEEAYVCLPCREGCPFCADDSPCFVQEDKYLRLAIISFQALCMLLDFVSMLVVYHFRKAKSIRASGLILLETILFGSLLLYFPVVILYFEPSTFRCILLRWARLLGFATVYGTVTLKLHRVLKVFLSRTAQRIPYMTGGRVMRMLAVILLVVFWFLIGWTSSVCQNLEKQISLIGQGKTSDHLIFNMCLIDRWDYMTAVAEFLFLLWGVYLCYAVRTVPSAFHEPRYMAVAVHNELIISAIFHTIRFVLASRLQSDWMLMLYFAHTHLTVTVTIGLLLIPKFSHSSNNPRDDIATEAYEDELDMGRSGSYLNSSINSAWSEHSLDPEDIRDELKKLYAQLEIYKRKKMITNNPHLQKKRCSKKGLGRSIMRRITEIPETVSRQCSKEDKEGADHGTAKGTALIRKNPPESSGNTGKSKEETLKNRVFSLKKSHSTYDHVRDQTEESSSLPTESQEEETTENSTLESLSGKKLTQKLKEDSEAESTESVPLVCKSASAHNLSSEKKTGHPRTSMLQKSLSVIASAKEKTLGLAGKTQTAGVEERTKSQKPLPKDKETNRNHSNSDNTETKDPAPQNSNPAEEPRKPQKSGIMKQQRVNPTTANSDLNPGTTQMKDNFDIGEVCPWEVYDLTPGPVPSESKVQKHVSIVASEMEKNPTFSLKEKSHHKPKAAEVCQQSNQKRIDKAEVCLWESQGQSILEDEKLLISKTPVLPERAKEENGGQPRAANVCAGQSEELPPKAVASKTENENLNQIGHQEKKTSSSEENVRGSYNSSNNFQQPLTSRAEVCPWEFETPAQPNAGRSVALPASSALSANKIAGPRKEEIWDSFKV
Experiment: BRET cAMP assay in U87 glioblastoma cells expressing GPR158
Assay type: cell-based
Parameters: expressed in transfected cells; host or cells: HEK293FT
Settings: glycine 100 μM
Text: FIGS. 1A-1E Identification of glycine as GPR158 ligand. A) 3D model of the GPR158 cache domain with putative ligand-binding pocket is shown as surface presentation with cartoon representation at the background. B) Schematic of the screening assay design. C) Quantification of cAMP changes mediated by GPR158. BRET signal in response to amino acid application detected in control cells is subtracted from the signal from cells expressing GPR158 and the difference is plotted. Dotted lines denote 2×SD confidence interval. Data shown represent mean±s.e.m. determined from 3 independent experiments performed in triplicate. D) Time course of cAMP change induced with 10 μM of forskolin in glioblastoma cells (U87 MG) in response to glycine (100 μM) application (arrow) in empty cells (control) or cells expressing indicated components. E) Quantification of maximal amplitudes of responses to glycine in panel d. Data shown represent mean±s.e.m. determined from 3 independent experiments performed in triplicate. **p<0.01 (one-way ANOVA).
To study this effect in more detail the inventors analyzed the individual responses to glycine in a kinetic mode.
HEK293FT cells were seeded in a white flat-bottom 96 well plate (Greiner Bio-One) at 50,000 cells per well and transiently transfected using Metafectene Pro with the manufacturer instruction. […] BRET measurements were made in living cells using a microplate reader (PHERAstar FSX; BMG Labtech) equipped with two emission photomultiplier tubes. […]
HEK293FT cells or U87 MG cells (ATCC HTB-14) when indicated were co-transfected with the CAMP sensor Camyel and with untagged receptors (respectively: empty vector, GPR158). BRET ratio was determined by calculating the ratio of the light emitted by RLuc (475 nm with a 30 nm band path width) over the light emitted by the Venus (535 nm with a 30 nm band path width) in order to measure an increase of the signal when cAMP increase. ΔBRET was calculated by subtracting the ctrl cell BRET result from GPR158 expressing cells BRET result in order to get specifically the signal from GPR158 removing all the non-specific signal. […]

SMILES: NCC(=O)O [glycine]
- cAMP change in cells lacking GPR158 (U87 cells without GPR158): No glycine-induced changes in cAMP
- cAMP change with co-expressed RGS7/Gβ5 (U87 cells, GPR158 + RGS7/Gβ5): further potentiated
- cAMP change (U87 glioblastoma cells expressing GPR158, forskolin 10 μM): resulted in cAMP decrease
